Experimental data from ChEMBL document CHEMBL1201862, “PubChem BioAssay data set” (2004).
Active and inactive are the calls of the source.

What was measured:
Bcl-2-related protein A1 [1] = molecular target: T1, Bcl-2-related protein A1 (Mus musculus, UniProt Q07440); assay: Bfl-1 inhibitors blocking BH3 peptide binding, confirmation, biochemical, TR-FRET, mouse Bfl-1 (AID 621);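 also: TR-FRET binding of GST-Bfl-1 to FITC-labelled Bid peptide via terbium antibody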
T1 sequence (Q07440 whole entry): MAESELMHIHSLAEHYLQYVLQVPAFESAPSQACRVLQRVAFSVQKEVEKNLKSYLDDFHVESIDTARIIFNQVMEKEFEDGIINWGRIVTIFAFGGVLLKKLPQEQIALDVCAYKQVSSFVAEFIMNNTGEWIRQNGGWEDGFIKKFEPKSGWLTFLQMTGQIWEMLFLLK

Bcl-2-related protein A1 [2] = molecular target: T1, Bcl-2-related protein A1; assay: Bfl-1 inhibitors, primary screen, biochemical, fluorescence polarization, FITC-Bid, mouse (AID 432)
[3] = molecular target: T2, Tyrosine-protein phosphatase non-receptor type 7 (Homo sapiens, UniProt P35236); assay: inhibitors of human HePTP phosphatase, […], biochemical, absorbance, leukemia target (AID 521); type: functional
T2 sequence (P35236 whole entry): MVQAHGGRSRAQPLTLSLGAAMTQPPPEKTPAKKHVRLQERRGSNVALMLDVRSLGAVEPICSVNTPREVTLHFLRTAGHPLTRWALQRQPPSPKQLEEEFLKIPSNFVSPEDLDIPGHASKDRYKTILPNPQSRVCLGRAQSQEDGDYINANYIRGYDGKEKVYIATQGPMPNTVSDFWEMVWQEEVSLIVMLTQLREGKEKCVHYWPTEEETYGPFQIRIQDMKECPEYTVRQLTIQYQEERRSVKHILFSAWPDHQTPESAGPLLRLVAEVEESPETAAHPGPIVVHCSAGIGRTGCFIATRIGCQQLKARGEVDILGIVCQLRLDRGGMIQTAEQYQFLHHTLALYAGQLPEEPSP

[4] = molecular target: Peroxisome proliferator-activated receptor gamma/Nuclear receptor coactivator 1 (Homo sapiens, UniProt P37231); type: functional;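 also: agonist potency as compounds enhance coactivator SRC-1 recruitment to PPARgamma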
[5] = molecular target: Peroxisome proliferator-activated receptor gamma/Nuclear receptor coactivator 2 (Homo sapiens, UniProt P37231); type: functional;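 also: agonist potency for raising coactivator recruitment to the receptor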
Peroxisome proliferator-activated receptor gamma/Nuclear receptor coactivator 2, sequence (P37231 whole entry): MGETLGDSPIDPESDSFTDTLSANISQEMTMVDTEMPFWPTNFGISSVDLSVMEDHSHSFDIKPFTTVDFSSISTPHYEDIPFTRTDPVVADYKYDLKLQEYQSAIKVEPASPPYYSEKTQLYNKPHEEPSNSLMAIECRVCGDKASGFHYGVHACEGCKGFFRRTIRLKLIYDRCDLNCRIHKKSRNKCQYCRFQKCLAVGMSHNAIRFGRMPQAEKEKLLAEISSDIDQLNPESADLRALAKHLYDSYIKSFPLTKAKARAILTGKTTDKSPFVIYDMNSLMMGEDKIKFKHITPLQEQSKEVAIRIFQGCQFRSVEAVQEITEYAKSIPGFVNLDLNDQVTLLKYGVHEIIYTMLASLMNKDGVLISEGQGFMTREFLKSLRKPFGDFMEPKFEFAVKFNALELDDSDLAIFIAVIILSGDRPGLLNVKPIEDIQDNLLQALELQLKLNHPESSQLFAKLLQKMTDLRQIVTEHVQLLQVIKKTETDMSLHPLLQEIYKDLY
Peroxisome proliferator-activated receptor gamma/Nuclear receptor coactivator 2, sequence (Q15596 whole entry, further chain): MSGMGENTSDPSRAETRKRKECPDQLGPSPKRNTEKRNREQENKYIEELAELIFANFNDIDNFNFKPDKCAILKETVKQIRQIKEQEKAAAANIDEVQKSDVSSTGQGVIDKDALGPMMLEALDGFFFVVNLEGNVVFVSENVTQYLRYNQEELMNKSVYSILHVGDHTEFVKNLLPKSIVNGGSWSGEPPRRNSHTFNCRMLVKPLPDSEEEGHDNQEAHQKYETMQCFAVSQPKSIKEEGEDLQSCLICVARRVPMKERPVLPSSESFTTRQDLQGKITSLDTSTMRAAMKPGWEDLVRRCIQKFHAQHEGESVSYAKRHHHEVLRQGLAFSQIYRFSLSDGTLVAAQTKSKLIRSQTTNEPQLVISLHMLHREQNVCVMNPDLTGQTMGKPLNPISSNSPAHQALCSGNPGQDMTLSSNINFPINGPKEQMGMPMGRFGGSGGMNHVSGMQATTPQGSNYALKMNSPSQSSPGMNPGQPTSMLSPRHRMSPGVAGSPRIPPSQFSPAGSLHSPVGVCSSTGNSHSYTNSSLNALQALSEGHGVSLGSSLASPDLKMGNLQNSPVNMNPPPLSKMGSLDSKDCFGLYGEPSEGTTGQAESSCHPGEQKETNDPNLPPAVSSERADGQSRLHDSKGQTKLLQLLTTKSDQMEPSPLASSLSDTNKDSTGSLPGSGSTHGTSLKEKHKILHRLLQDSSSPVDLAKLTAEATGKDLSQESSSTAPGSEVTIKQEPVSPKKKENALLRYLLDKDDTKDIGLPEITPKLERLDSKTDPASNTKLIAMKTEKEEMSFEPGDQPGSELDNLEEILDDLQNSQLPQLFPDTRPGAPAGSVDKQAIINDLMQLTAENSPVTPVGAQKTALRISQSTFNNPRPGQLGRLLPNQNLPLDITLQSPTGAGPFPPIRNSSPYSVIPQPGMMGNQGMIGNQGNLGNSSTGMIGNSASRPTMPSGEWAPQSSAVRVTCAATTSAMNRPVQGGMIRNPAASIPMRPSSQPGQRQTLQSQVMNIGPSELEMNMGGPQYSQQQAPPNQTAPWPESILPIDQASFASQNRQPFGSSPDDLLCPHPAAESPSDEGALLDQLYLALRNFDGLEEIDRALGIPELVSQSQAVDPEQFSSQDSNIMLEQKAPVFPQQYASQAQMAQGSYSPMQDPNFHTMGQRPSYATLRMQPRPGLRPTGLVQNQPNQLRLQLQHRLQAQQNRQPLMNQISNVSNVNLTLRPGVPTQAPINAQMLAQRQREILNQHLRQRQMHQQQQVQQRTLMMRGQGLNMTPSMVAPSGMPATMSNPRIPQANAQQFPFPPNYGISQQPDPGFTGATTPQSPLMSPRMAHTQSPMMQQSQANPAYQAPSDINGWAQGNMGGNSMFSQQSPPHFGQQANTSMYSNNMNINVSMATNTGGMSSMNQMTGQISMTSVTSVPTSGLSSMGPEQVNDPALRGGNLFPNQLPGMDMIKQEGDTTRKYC

[6] = molecular target: Neuropeptide Y receptor type 2 (Homo sapiens, UniProt P49146); assay: NPY-Y2 antagonist potency, selectivity check, dose response, counter-screen for NPY-Y1 antagonist project, cell-based (AID 1278); type: functional
[7] = molecular target: Peroxisome proliferator-activated receptor gamma/Nuclear receptor coactivator 3 (Homo sapiens, UniProt P37231); type: functional;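 also: agonist potency for raising coactivator recruitment to the receptor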
Peroxisome proliferator-activated receptor gamma/Nuclear receptor coactivator 3, sequence (P37231 whole entry): as the sequence (P37231 whole entry) above
Peroxisome proliferator-activated receptor gamma/Nuclear receptor coactivator 3, sequence (Q9Y6Q9 whole entry, further chain): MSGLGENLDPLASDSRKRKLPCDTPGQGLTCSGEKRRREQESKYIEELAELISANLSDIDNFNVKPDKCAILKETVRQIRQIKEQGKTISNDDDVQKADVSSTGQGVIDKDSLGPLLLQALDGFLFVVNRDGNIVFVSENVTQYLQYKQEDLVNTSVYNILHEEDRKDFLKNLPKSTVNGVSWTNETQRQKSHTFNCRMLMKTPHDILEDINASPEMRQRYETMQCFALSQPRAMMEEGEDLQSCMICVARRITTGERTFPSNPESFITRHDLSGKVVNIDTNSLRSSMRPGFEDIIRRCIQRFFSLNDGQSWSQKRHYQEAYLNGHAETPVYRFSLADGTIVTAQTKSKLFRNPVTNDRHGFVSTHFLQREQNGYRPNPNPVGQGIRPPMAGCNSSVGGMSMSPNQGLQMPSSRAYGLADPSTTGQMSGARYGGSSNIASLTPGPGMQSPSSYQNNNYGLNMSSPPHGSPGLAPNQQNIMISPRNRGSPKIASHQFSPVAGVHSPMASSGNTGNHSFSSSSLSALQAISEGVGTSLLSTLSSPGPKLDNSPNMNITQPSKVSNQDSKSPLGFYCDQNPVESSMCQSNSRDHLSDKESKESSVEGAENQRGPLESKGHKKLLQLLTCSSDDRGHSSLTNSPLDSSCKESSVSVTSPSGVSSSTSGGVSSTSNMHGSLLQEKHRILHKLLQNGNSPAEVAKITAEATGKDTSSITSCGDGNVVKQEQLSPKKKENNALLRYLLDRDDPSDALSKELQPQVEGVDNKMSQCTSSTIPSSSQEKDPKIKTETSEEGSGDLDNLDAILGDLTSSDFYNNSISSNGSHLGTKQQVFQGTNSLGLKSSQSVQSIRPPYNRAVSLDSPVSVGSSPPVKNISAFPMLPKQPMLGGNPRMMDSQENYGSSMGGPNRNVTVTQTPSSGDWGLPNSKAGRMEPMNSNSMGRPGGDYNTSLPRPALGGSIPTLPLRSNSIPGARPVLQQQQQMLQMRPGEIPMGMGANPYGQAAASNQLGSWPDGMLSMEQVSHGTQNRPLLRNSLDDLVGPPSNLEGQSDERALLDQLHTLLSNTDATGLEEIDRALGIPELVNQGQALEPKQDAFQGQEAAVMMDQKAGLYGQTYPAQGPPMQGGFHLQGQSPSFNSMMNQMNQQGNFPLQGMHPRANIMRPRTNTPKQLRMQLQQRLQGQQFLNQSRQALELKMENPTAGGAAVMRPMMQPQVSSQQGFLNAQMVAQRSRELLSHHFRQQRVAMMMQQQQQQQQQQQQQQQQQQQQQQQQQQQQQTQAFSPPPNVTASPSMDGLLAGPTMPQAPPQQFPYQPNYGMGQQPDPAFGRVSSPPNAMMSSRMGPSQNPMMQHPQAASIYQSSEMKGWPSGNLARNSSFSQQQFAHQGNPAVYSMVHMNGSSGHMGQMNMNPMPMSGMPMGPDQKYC

[8] = molecular target: Photoreceptor-specific nuclear receptor (Homo sapiens, UniProt Q9Y5X4); assay: NR2E3 inverse agonists, dose response, biochemical, TR-FRET (AID 463256); type: functional
[9] = molecular target: Peroxisome proliferator-activated receptor gamma/Nuclear receptor corepressor 2 (Homo sapiens, UniProt P37231+Q9Y618); assay: Counterscreen for NR2E3 inverse agonists: TR-FRET-based biochemical high throughput dose response assay to identify inverse agonists of the interaction between peroxisome proliferator-activated receptor gamma (PPARg) and nuclear receptor co-repressor 2 (NCOR2).; type: functional
Cytochrome P450 2C9 = Cytochrome P450 2C9 (Homo sapiens, UniProt P11712); settings: Potency
Cytochrome P450 2C9, sequence (P11712 whole entry): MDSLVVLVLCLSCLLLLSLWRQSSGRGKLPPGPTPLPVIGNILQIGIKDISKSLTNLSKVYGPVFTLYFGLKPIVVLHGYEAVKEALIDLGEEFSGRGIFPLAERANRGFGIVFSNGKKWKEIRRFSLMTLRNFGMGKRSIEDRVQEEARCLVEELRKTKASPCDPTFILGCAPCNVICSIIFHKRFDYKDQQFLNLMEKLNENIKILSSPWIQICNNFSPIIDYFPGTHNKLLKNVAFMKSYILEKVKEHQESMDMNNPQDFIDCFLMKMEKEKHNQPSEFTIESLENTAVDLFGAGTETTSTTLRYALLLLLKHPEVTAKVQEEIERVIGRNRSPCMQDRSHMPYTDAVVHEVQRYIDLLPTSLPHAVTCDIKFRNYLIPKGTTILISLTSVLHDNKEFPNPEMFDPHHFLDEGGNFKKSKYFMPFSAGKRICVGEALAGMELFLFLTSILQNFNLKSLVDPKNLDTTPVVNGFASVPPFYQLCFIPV

Cytochrome P450 2C19 = Cytochrome P450 2C19 (Homo sapiens, UniProt P33261); assay: qHTS Assay for Inhibitors and Substrates of Cytochrome P450 2C19. [Related pubchem assays: 410 ]; type: ADME; settings: read-out: Potency
Cytochrome P450 2C19, sequence (P33261 whole entry): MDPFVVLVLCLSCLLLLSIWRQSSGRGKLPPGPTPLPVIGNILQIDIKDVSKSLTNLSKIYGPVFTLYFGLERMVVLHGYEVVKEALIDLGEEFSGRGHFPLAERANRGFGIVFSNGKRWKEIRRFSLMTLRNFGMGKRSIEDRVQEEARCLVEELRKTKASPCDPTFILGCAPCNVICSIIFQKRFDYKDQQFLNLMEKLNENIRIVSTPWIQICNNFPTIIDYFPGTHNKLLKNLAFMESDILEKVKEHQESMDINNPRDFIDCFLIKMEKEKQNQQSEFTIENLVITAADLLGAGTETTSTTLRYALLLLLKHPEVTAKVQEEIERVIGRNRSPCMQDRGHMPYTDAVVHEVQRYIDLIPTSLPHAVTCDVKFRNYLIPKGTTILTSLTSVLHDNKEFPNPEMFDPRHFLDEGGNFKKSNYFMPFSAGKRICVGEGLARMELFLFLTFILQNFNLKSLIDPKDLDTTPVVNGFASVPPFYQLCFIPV

[10] = molecular target: Heat shock protein HSP 90-alpha (Homo sapiens, UniProt P07900); type: functional, organism-based
[11] = Vero cell cytotoxicity, dose response, cytotoxicity control for Vif-APOBEC3G degradation inhibitor project, Vero cells (AID 1117358); type: functional; settings: Human immunodeficiency virus 1, Vero

COc1ccc(-c2nnc3sc(-c4c(OC)cccc4OC)nn23)cc1
IC50 (Bcl-2-related protein A1 [1]): > 100 µM (not active) | IC50 (Bcl-2-related protein A1 [2]): 18.1 µM (active)

O=C(CCCn1c(=O)[nH]c2cc(Cl)ccc2c1=O)NCCN1CCN(c2ccccc2)CC1
IC50 [3]: > 100 µM (not active)

Cn1ccnc1C1CCCCN1Cc1nc(-c2ccc3c(c2)OCO3)no1 (stereo not drawn)
EC50 [4]: > 79.4 µM (not active) | EC50 [5]: > 79.4 µM (not active) | IC50 [6]: > 35 µM (not active) | EC50 [7]: > 79.4 µM (not active)

CC(C)(C)NC(=O)CN(Cc1ccco1)C(=O)CCC(=O)Nc1nccs1
IC50 [8]: > 39.8 µM (not active) | IC50 [9]: 32.7 µM (not active)

COc1cc2ccc(=O)oc2c(O)c1O [FRAXETIN]
AC50 (Cytochrome P450 2C9): 25.1 µM (inconclusive) | AC50 (Cytochrome P450 2C19): 39.8 µM (inconclusive)

CCCCCCC(=O)N(O)C1CC(=O)N(c2ccc(Br)cc2)C1=O (stereo not drawn)
AC50 [10]: 3.17 µM (active) | CC50 [11]: > 40 µM (active)
